Assay results reported in patent publication US20230293512A1, “S100 PROTEINS AS NOVEL THERAPEUTIC TARGETS IN MYELOPROLIFERATIVE NEOPLASMS” (ERASMUS UNIVERSITY MEDICAL CENTER ROTTERDAM, priority 2020, published 2023).

Tests used:
S100A8 and S100A9 = conditions: Stewart et al, Bone Marrow Res. 2018; cited from earlier work
S100A9 protein = target: T1, S100A9 protein (Homo sapiens, UniProt P06702); conditions: cited from earlier work
T1 sequence (P06702 1-114): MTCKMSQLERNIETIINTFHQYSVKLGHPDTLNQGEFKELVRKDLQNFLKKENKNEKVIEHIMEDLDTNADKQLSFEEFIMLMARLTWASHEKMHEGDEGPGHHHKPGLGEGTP

[1] = test system: mice developing JAK2(V617F)-mediated myelofibrosis; experiment: Tasquinimod treatment of mice with JAK2(V617F)-induced myelofibrosis; type: in vivo; conditions: JAK2(V617F)-transplanted mice, 30 mg/kg/day in drinking water; for MPN-specific leukocytosis (white blood cell counts from peripheral blood) / splenomegaly (spleen weights normalized to mouse weight) / bone marrow fibrosis grade (reticulin grade): 30 mg/kg/day; for bone marrow fibrosis grade (reticulin grade): vehicle-treated mice developed grade 2-3 fibrosis and osteosclerosis
Description: Murine organs were fixed in 4% paraformaldehyde for 24 hours and transferred to 70% ethanol. Femurs were decalcified in 10% EDTA/Tris-HCl (pH 6.6) solution for 72 hours, dehydrated and paraffin embedded. H&E and reticulin staining were performed on 4 μm sections according to established routine protocols.
Blood was periodically collected from mice via submandibular bleeds into Microtainer tubes coated with K2EDTA (Becton Dickinson, NJ, USA) and complete blood counts were performed on a Horiba Scil Vet abc Plus hematology system.
For tasquinimod studies, WT recipient mice (n=7-10/group) were lethally irradiated (10.5 Gy) and received ckit^+ cells transduced with […] or JAK2^(WT) retroviral virus. Tasquinimod treatment (ABR-215050, Biorbyt) was administered via drinking water at 30 mg/kg/day dissolved in 3% sucrose in autoclaved water. Tasquinimod was first dissolved in DMSO and mixed with 3% sucrose, 2% PEG300 (Sigma) in water. Vehicle-treated groups received DMSO-, PEG300-treated water with 3% sucrose. Drinking bottles were renewed twice a week. Treatment was started at 5 weeks post-transplant until 10 post-transplant, and resumed at 13 weeks post-transplant until sacrifice at 20 weeks post-transplant. Mice were randomly assigned to transplant and treatment groups.
To further validate the role of S100A8/S100A9 in the fibrotic initiation and progression, the inventors sought to use a S100A9-inhibitor known as tasquinimod (ABR-215050) in mice developing JAK2(V617F)-mediated myelofibrosis. […] Tasquinimod treatment was administered via drinking water starting at 5 weeks post-transplant, until sacrifice at 20 weeks post-transplant with a treatment break at 10 weeks post-transplant to minimize deleterious effects on normal granulocyte function (FIG. 4A).

[2] = weeks 5-10 and 13-20 post-transplant, vs vehicle
[3] = weeks 5-10 and 13-20 post-transplant, vs vehicle, listed as Tasquinimod

Row | Structure (SMILES) | S100A8 and S100A9 mRNA and protein levels (S100A8 and S100A9) | binding to S100A9 protein and effect on its interaction with TLR4 and RAGE receptors (S100A9 protein) | thrombocytosis (platelet counts in peripheral blood) [1, 2] | MPN-specific leukocytosis (white blood cell counts from peripheral blood) [1, 2] | splenomegaly (spleen weights normalized to mouse weight) [1, 2] | MPN-specific leukocytosis (white blood cell counts from peripheral blood) [1, 3] | splenomegaly (spleen weights normalized to mouse weight) [1, 3] | bone marrow fibrosis grade (reticulin grade) [1] | bone marrow fibrosis grade (reticulin grade) ([1]; listed as Tasquinimod)
1 | Cc1sc2c(c1C)C(c1ccc(Cl)cc1)=N[C@@H](CC(=O)OC(C)(C)C)c1nnc(C)n1-2 [JQ1] | suppress S100A8 and S100A9 mRNA and protein levels |  |  |  |  |  |  |  | 
2 | COc1cccc2c1c(O)c(C(=O)N(C)c1ccc(C(F)(F)F)cc1)c(=O)n2C [tasquinimod, 4-hydroxy-5-methoxy-N,1-dimethyl-2-oxo-N-[4-(trifluoromethyl)phenyl]-1,2-dihydroquinoline-3-carboxamide] |  | binds to S100A9 protein and impedes its interaction with TLR4 and RAGE receptors | did not develop thrombocytosis | did not develop MPN-specific leukocytosis | completely normalized | normalizes splenomegaly and leukocytosis | normalizes splenomegaly | reduced fibrosis grade | reduces fibrosis in bone marrow
